Reference: paper PMC11597854 (2024)

Assays:
[1] = tested on: hTel23 (DNA, G4) TAGGGTTAGGGTTAGGGTTAGGG; assay: CD melting; conditions: 80 mM KCl, 10 mM KH2PO4 (90 mM K+); pH 7.3; 5 equiv. complex (25 µM), 5 µM DNA, 0.5 °C/min
[2] = tested on: hTel23 (DNA, G4) TAGGGTTAGGGTTAGGGTTAGGG; assay: CD titration, Hill fit; conditions: 80 mM KCl, 10 mM KH2PO4 (90 mM K+), pH 7.3, 5 °C, up to 0.9% DMSO, apparent

| ΔTM [1] | Kd ([2]; 290 nm (hybrid form)) [µM] | Kd ([2]; 272 nm (parallel form), 290 nm (hybrid) gives 17) [µM] | SMILES |
| --- | --- | --- | --- |
| −13 °C | 9.7 |  | CC(=O)NCCN1[C]N2C=CC=CC2=C1.CC(=O)NCCN1[C]N2C=CC=CC2=C1.[Au+] |
| −2 °C |  |  | CCN1[C]N(CC)C(c2ccc(OC)cc2)=C1c1ccc(OC)cc1.CCN1[C]N(CC)C(c2ccc(OC)cc2)=C1c1ccc(OC)cc1.[Au+] |
| −4 °C |  | 5.1 | [Au+].[C]1C2=C(CCCC2)N2CCCCN12.[C]1C2=C(CCCC2)N2CCCCN12 |
| +1 °C |  |  | [Au+].[C]1N(Cc2ccccn2)C=CN1c1c2ccccc2nc2ccccc12.[C]1N(Cc2ccccn2)C=CN1c1c2ccccc2nc2ccccc12 |
